Eleven compounds from patent US20250144067A1, “PERSONALIZED STARVATION THERAPY FOR CANCER” (Faeth Therapeutics, Inc., priority 2021, published 2025) can be followed below.

Structures can show the parent of a compound that is named as a salt.

In assay [1] the test system is NCI-H292 lung cancer cells. As to the kind of experiment: FDA drug screening, complete media vs cholesterol-free media without statin (TABLE 1). The format is cell-based, human. The conditions noted are these: for Cholesterol-free / Complete: NCI-H292 cells; for Cholesterol-free: cholesterol-free media without statin; for Complete: complete media.
The subject of assay [2] is NCI-H292 lung cancer cells. Kind of assay: FDA drug screening, complete media vs cholesterol-free media with simvastatin (TABLE 2). The format is cell-based, human. The note with it: for Cholesterol-free media + simvastatin (0.04 μM) / Complete Media: NCI-H292 cells.
[3] abbreviates: complete vs cholesterol-free media, >0 enhanced anti-cancer activity, about 0 neutral, <0 antagonist.
Where [4] appears, read: FDA drug library screen, cholesterol-free media with simvastatin 0.04 μM.
Where [5] appears, read: FDA drug library screen, complete media.
Setting [6] is: complete media vs cholesterol-free media + simvastatin (0.04 μM), >0 enhanced anti-cancer activity, about 0 neutral, <0 antagonist.
Where [7] appears, read: Complete minus Cholesterol-free, >0 enhanced anti-cancer activity, about 0 neutral, <0 antagonist.
Where [8] appears, read: complete media minus cholesterol-free media + simvastatin, >0 enhanced anti-cancer activity, about 0 neutral, <0 antagonist.
The mark [9] stands for this setting: drug in cholesterol-free media with simvastatin 0.04 μM.
[10] abbreviates: cholesterol-free media with simvastatin 0.04 μM, FDA drug library screen (TABLE 2).
Where [11] appears, read: complete media, FDA drug library screen (TABLE 2).
The mark [12] stands for this setting: complete media minus cholesterol-free media + simvastatin (0.04 μM), >0 enhanced anti-cancer activity, about 0 neutral, <0 antagonist.

Regarding `CN(C)CCC=C1c2ccccc2CCc2ccccc21` [Amitriptyline (hydrochloride)], in assay [1] (FDA drug library screen), the Cholesterol-free is on record as 0.8567 and the Complete is 1.344. In addition, in assay [1] (setting [3]), the Difference was 0.49. In addition, the “Cholesterol-free media + simvastatin (0.04 μM)” value in assay [2] (setting [4]) is given as 0.9551. Further, the “Complete Media” value in assay [2] (setting [5]) is 0.8184. Moreover, the Difference in assay [2] (setting [6]) is −0.14.

Regarding `O=C1NCCN1CCN1CCC(c2cn(-c3ccc(F)cc3)c3ccc(Cl)cc23)CC1` [Sertindole], the Difference in assay [1] (setting [7]) is −0.04. For the same compound, in assay [1] (FDA drug library screen), the Cholesterol-free amounted to 0.5468 and the Complete was found to be 0.5035. Moreover, the “Cholesterol-free media + simvastatin (0.04 μM)” value in assay [2] (setting [4]) is given as 0.7983. Also, the “Complete Media” value in assay [2] (setting [5]) amounted to 1.128. Further, the Difference in assay [2] (setting [8]) is listed as 0.33.

For the compound `CNC(=O)c1c(C)oc2cc(Oc3ncnc4cc(OC)c(OC)cc34)ccc12` [Fruquintinib], the Difference in assay [1] (setting [7]) is 0.02. In assay [1] (FDA drug library screen), the Cholesterol-free turned out to be 0.9702 and the Complete is 0.994. Moreover, the “Cholesterol-free media + simvastatin (0.04 μM)” value in assay [2] (setting [4]) came to 1.198. The “Complete Media” value in assay [2] (setting [5]) is 1.059. The Difference in assay [2] (setting [6]) is reported as −0.14.

For the compound Cobimetinib (hemifumarate), the Difference in assay [1] (setting [7]) was 0.01; in assay [2] (setting [6]), −0.20. Besides, the Cholesterol-free in assay [1] (FDA drug library screen) is given as 0.2855. In assay [1] (FDA drug library screen), this compound returned a Complete of 0.2917. Also, the “Cholesterol-free media + simvastatin (0.04 μM)” value in assay [2] (setting [9]) came to 0.5239. Moreover, the “Complete Media” value in assay [2] (drug in complete media) is 0.3203.

For the compound `CC(=O)NO` [Acetohydroxamic acid], in assay [1] (setting [7]), the Difference is reported as −0.28. In assay [1], this compound yielded a Cholesterol-free of 1.174 and a Complete of 0.8978. Moreover, the “Cholesterol-free media + simvastatin (0.04 μM)” value in assay [2] (cholesterol-free media with simvastatin 0.04 μM, cell growth value in FDA drug screen) came out at 0.8799. Further, the “Complete Media” value in assay [2] (complete media, cell growth value in FDA drug screen) was 0.8992. The Difference in assay [2] (setting [8]) is recorded as 0.02.

As to `C=C1CCC2CC1C2(C)C` (stereo not drawn) [β-Pinene], the Difference in assay [1] (setting [7]) is recorded as −0.30; in assay [2] (setting [6]) it was −0.26. In addition, in assay [1], the Cholesterol-free worked out at 0.968. Also, in assay [1], the Complete came to 0.6726. For the same compound, the “Cholesterol-free media + simvastatin (0.04 μM)” value in assay [2] (setting [9]) is given as 1.724. In assay [2] (drug in complete media), the “Complete Media” value is reported as 1.464.

Regarding `CC(C)(C)C(=O)Oc1ccc(S(=O)(=O)Nc2ccccc2C(=O)NCC(=O)O)cc1` [Sivelestat (sodium tetrahydrate)], the Difference in assay [1] (setting [7]) is reported as −0.30. In assay [1], this compound displayed a Cholesterol-free of 1.29 and a Complete of 0.9928. The “Cholesterol-free media + simvastatin (0.04 μM)” value in assay [2] (setting [10]) turned out to be 1.071. Besides, the “Complete Media” value in assay [2] (setting [11]) came out at 1.039. Besides, the Difference in assay [2] (setting [12]) is −0.03.

On to `C[C@H]1C[C@H]2[C@@H]3CCC4=CC(=O)C=C[C@]4(C)[C@H]3C(=O)C[C@]2(C)[C@@]1(O)C(=O)CO` [Meprednisone], for which the Cholesterol-free in assay [1] (FDA drug library screen) turned out to be 0.7649. The Complete in assay [1] (FDA drug library screen) came out at 1.522. The Difference in assay [1] (setting [3]) is listed as 0.76; in assay [2] (setting [6]) it was −0.25. In addition, in assay [2] (setting [9]), the “Cholesterol-free media + simvastatin (0.04 μM)” value amounted to 1.224. Moreover, the “Complete Media” value in assay [2] (drug in complete media) came out at 0.9766.

In assay [1], `N#Cc1ccc(C(c2ccc(C#N)cc2)n2cncn2)cc1` [Letrozole] had a Cholesterol-free of 1.334 and a Complete of 1.012. For the same compound, the Difference in assay [1] (complete vs cholesterol-free media, greater than 0 enhanced anti-cancer activity, about 0 neutral, below 0 antagonists) is listed as −0.32. In addition, the “Cholesterol-free media + simvastatin (0.04 μM)” value in assay [2] (FDA library drug in cholesterol-free media with simvastatin 0.04 μM) is 1.67. Moreover, the “Complete Media” value in assay [2] (FDA library drug in complete media) is on record as 1.21. In addition, the Difference in assay [2] (setting [6]) is reported as −0.46.

Take `CCCN(CCc1cccs1)[C@H]1CCc2c(O)cccc2C1` [Rotigotine]: the Difference in assay [1] (setting [7]) was determined as 0.07. Besides, in assay [1] (FDA drug library screen), the Cholesterol-free stood at 0.9004 and the Complete is listed as 0.9685. In addition, the “Cholesterol-free media + simvastatin (0.04 μM)” value in assay [2] (setting [10]) was found to be 1.128. Also, the “Complete Media” value in assay [2] (setting [11]) is 1.07. For the same compound, the Difference in assay [2] (setting [12]) is −0.06.

On to Emamectin (Benzoate), for which the Difference in assay [1] (Complete minus Cholesterol-free, […]) worked out at 0.02; in assay [2] (complete media minus cholesterol-free media + simvastatin, […]), 0.41. This compound also came in with a Cholesterol-free in assay [1] (FDA drug library screen) of 0.001259. In assay [1] (FDA drug library screen), this compound yielded a Complete of 0.01673. Further, the “Cholesterol-free media + simvastatin (0.04 μM)” value in assay [2] (setting [4]) is listed as 0.006354. Further, the “Complete Media” value in assay [2] (setting [5]) is on record as 0.4189.
